# According to patent publication US20240325335A1, “BIOLOGICALLY COMPATIBLE, BIOFILM DISRUPTING COMPOSITION AND METHODS” (priority 2023, published 2024):
# Several values for one entry are separate records, joined by “and”; a condition that tells them apart may be missing. Equal values may be shown once. Starred links: 1 amine or outer side, 2 acyl side, 3 side chain; linkers in the order of their positions; H or OH if unused. Positions of bridges follow the written chain, without caps; N, C: chain ends. Non-standard residues stand in square brackets, D forms with d. Residues, ends and D or L forms follow the SMILES beside them. X1 = CC(C)CCCCCCCCC[C@H](CC(=O)[*:1])O[*:2]
# Tests used:
# cold sores = experiment: Additional clinical data and case study, cold sores; assay type: in vivo, human; conditions: case study patient (untreated 2-4 weeks)
# [1] = at 24 hours (Zeichner, '13); cited from earlier work
# C. trachomatis = conditions: Bergsson, '98; cited from earlier work
# [2] = tested on: Pseudomonas aeruginosa biofilm; experiment: Biofilm Protocol #3, LR against 48-hour biofilm, CDC Biofilm Reactor; assay type: cell-based; conditions: pH 9.0, 5 hours contact time
# Description: LR testing was performed with varying compositions of GML and UDA against Staph. aureus, Pseudomonas aeruginosa, E. coli., Klebsiella pneumonia, Enterococcus faecalis. All biofilm is 48 hour laboratory grown. Biofilms of the tested organisms were grown in the laboratory to become mature 48-hour old biofilm. Testing involved the evaluation of numerous composition combinations for their ability to kill biofilm-associated pathogens grown using a CDC Biofilm Reactor. The ability to kill organisms was documented as a LR of the selected organisms that was measured as CFUs (colony forming units). LRs were documented for the different composition combinations. Testing protocols initially included both FAs and esters. […] LR testing was performed with numerous combinations to determine an optimal combination. […] Additional combinations comprised the plant phenol/flavonoid quercetin, amino acids, the synthetic surfactant SLS, biosurfactants RL and MEL, and UDA. The BS SL was not tested due to poor results in the prior P #2 configurations. […] The TSC served as a buffer. […] Alkaline pH was buffered with disodium hydrogen phosphate or glycine.
# [3] = cited from earlier work
# [4] = aqueous
# [5] = tested on: Candida albicans (ATCC MYA-2876; TPPS 1078), planktonic; experiment: P #5A planktonic antifungal testing; assay type: cell-based; conditions: up to 5-hour contact time, lecithin solubilizer
# Description: Two sets of planktonic antifungal tests were performed, Candida and the dermatophyte Epidermophyton floccusum. Fungal strains-Candida albicans (ATCC MYA-2876; TPPS 1078) procured from the American Type Culture Collection, Manassas, VA.-Epidermophyton floccosum (ATCC 15693; TPPS 1243) procured from the American Type Culture Collection, Manassas, VA.
# enveloped viruses = conditions: at 1 hour, virtually all enveloped viruses tested (Hierholzer, '16); cited from earlier work
# P. acnes = experiment: Protocol #4 in-vitro time-kill (ASTM E2315); assay type: cell-based, Propionibacterium acnes
# Description: PURPOSE: This evaluation uses an in-vitro time-kill method to quantitatively assess the bactericidal activity of […] (10) formulations when challenged with P. acnes. An in vitro time-kill evaluation was conducted with various compositions based upon the methods described in the standardized ASTM […], Standard Guide for Assessment of Antimicrobial Activity Using a Time-Kill Procedure. […] A neutralization assay was performed on all the challenge organisms. Testing at pH 4.0.
# [6] = tested on: Herpes Simplex Virus type 1 strain HF (ATCC #VR-260); experiment: Virucidal Suspension Test (ASTM E1052-20, in-vitro time-kill); assay type: cell-based; conditions: pH 9.0, 30 sec
# Excerpt: The testing was based upon ASTM E1052-20, Standard Practice to Assess the Activity of Microbicides against Viruses in Suspension. The first antiviral testing protocols involve only HSV-1 virus with both alkaline and acid pH tests.
# This study was done to determine virucidal efficacy of twelve test products when challenged with Herpes Simplex Virus type 1 strain HF (ATCC #VR-260) based upon a Virucidal Suspension Test (In-Vitro Time-Kill method). The test products comprise 8 varying compositions. Calculations of the estimated virus concentrations was performed using a 50% tissue culture infectious dose (TCID50) calculation—the Quantal test (Spearman-Karber Method). The logo reductions from the initial population of the viral strain were determined following exposure to the test product for 30 seconds, 2.5 minutes and 5 minutes. Testing was conducted in one replicate. Plating was performed in four replicates. […]
# This study was done to determine virucidal efficacy of 12 test products when challenged with HSV-1 strain HF (ATCC #VR-260) and Human Coronavirus strain OC43 (ZeptoMetrix #0810024CF) based upon a Virucidal Suspension Test (In-Vitro Time-Kill method). […] The log 10 reductions from the initial population of the viral strain were determined following exposure to the test product for 30 seconds, 2.5 minutes and 5 minutes. […]
# [7] = tested on: Staphylococcus aureus (ATCC #6538) biofilm; experiment: Biofilm Protocol #1, ASTM E2871 single tube method, CDC Biofilm Reactor; conditions: 5-minute contact time; for Log10 CFU/Coupon: treated coupons
# [8] = tested on: Pseudomonas aeruginosa (ATCC #15442) biofilm; experiment: as above; conditions: 5-minute contact time; for Log10 CFU/Coupon: treated coupons
# [9] = tested on: Pseudomonas aeruginosa (ATCC #15442) biofilm; experiment: Biofilm Protocol #2, ASTM E2871 single tube method, 48 hour biofilm; assay type: cell-based
# Description: (§1) In this round of testing, it was the intent to test numerous potential antibiofilm combinations.
# (§2) EtOH (ethanol) was used as a solvent for all hydrophobic compounds: SLs, CaprAc, CURC and OCT. EtOH was used at up to 1.0% concentration.
# (§3) Alkaline pH is achieved with NaOH titration.
# (§4) Each was performed in one replicate for each species. A single sponsor-selected exposure duration was evaluated. The challenge organisms for this evaluation were Pseudomonas aeruginosa (ATCC #15442) and Staphylococcus aureus MRSA (ATCC #6538
# [10] = tested on: Staphylococcus aureus MRSA (ATCC #6538) biofilm; experiment: as above; assay type: cell-based
# Description: as §1, §2, §3, §4
# [11] = tested on: Candida albicans 48 hour biofilm; experiment: P #5B-D Candida biofilm testing; assay type: cell-based; conditions: pH 9.0-9.5, one hour contact time
# Description: Organisms: Candida albicans ([…] 1078). Date Culture Initiated: […] Culture Medium: Sabouraud dextrose agar. […] These tests were performed utilizing only UDA, due to the poor GML results in P #5A. […] […] Effect of Aspartic Acid, Cysteine, Salicylic Acid […] Prior literature indicates poor antifungal effects in alkaline pH, thus it was the intent to document whether disclosed compositions would generate an improved antifungal effect in alkaline pH.
# [12] = tested on: Mycobacterium fortuitum (ATCC #6841) biofilm; experiment: Protocol #6 mycobacterial biofilm in silicone tubing; assay type: cell-based; conditions: pH 9.0, 5 hours contact time
# Description: Two challenge microorganisms are separately evaluated: Brevundimonas diminuta (ATCC #19146) and Mycobacterium fortuitum (ATCC #6841). Biofilms of each challenge microorganism were formed in laboratory-created tubing loops consisting of a length of silicone tubing connected to a bottle of challenge microorganism in growth broth. The fluid within the tubing loop was recirculated for 10 to 14 days (Mycobacterium fortuitum) at a flowrate of 30 mL/minute while held at 36° C. (Mycobacterium fortuitum). Following completion of biofilm generation, the tubing loops were drained, and the tube lumen gently rinsed with phosphate-buffered water to remove planktonic (i.e., non-biofilm) challenge microorganisms. The tubing was then disinfected according to the manufacturer's Instructions for Use. At the completion of treatment, a portion of the silicone tubing was removed for analysis of biofilm concentration and imaging of biofilm coverage.
molecule,measurement,setting,value
"Nc1nc2c(ncn2COCCO)c(=O)[nH]1 [Acyclovir, acyclovir]",time to resolution of cold sores,cold sores,7 to 14 days
"O=C(OOC(=O)c1ccccc1)c1ccccc1 [BPO, benzoyl peroxide]",BPO absorbed through the skin,[1],5-9%
CCCCCCCC(=O)O [Caprylic acid],reduction in the infectivity titer / inactivation,C. trachomatis,negligible effects
"CCCCCCCCCCCC(=O)OCC(O)CO (centres unmarked) [GML, glycerol monolaurate]",LR PA,[2],9.11
same,reduction in the infectivity titer / inactivation,C. trachomatis,negligible effects
same,maximal water solubility,[3],< 100 µg/mL
same,maximum concentration of GML solubilized,[4]; EtOH 1% as solvent,0.1%
same,GML concentration solubilized,[4]; deoiled lecithin as solubilizer,≥ 20%
same,LRs against planktonic C. albicans,[5],0-1
same,log reduction,enveloped viruses,> 3
same,Log Reductions 0.5 (30 seconds),"P. acnes; pH 4.0, 30 seconds exposure",1.87
same,Log Reductions 5 min,"P. acnes; pH 4.0, 5 min exposure",4.81
same,LR 30 sec,[6],> 5.5 and > 4.75 and > 5.25
"CCCCCCCCN=c1ccn(CCCCCCCCCCn2ccc(=NCCCCCCCC)cc2)cc1 [I: OCT 0.1%, 1 mg/mL, octenidine]",Log10 Reduction,[7]; 1 mg/mL.,3.28
same,Percent Reduction,[7]; 1 mg/mL.,99.95%
same,Log10 CFU/Coupon,[7]; 1 mg/mL.,4.93
same,Log10 Reduction,[8],1.84
same,Percent Reduction,[8],98.56%
same,Log10 CFU/Coupon,[8],7.31
"CCCCCCCCN=c1ccn(CCCCCCCCCCn2ccc(=NCCCCCCCC)cc2)cc1 [J: OCT 0.02%, 0.2 mg/mL, octenidine]",Log10 Reduction,[7]; 0.2 mg/ml,1.87
same,Percent Reduction,[7]; 0.2 mg/ml,98.68%
same,Log10 CFU/Coupon,[7]; 0.2 mg/ml,6.34
same,Log10 Reduction,[8],0.80
same,Percent Reduction,[8],84.48%
same,Log10 CFU/Coupon,[8],8.35
"CCCCCCCCN=c1ccn(CCCCCCCCCCn2ccc(=NCCCCCCCC)cc2)cc1 [OCT, octenidine]",LOG REDUCTIONS Pseud,[9]; Acid pH 4.0,4.9
same,LOG REDUCTIONS Pseud,[9]; Alkaline pH 8.5,9.11
same,LOG REDUCTIONS Staph,[10]; Acid pH 4.0,1.08
same,LOG REDUCTIONS Staph,[10]; Alkaline pH 8.5,7.9
"CCCCCCCCCCCCOS(=O)(=O)[O-].[Na+] [SLS, sodium lauryl sulfate]",LR PA,[2],3.76
CC(C)CCCCCCCCC[C@@H]1CC(=O)N[C@@H](CCC(=O)O)C(=O)N[C@@H](CC(C)C)C(=O)N[C@H](CC(C)C)C(=O)N[C@@H](C(C)C)C(=O)N[C@@H](CC(=O)O)C(=O)N[C@H](CC(C)C)C(=O)N[C@@H](CC(C)C)C(=O)O1 [Surfactin] (EL[dL]VD[dL]L; linker N-C via X1),Log10 Reduction,[7],0.00
same,Percent Reduction,[7],0.00%
same,Log10 CFU/Coupon,[7],8.28
same,Log10 Reduction,[8],0.00
same,Percent Reduction,[8],0.00%
same,Log10 CFU/Coupon,[8],9.18
"C=CCCCCCCCCC(=O)O [UDA, undecylenic acid]",LR,[11],> 4
same,LR,[12],> 5.31
CCCCCCCCCC(=O)OCC(O)CO (centres unmarked) [monocaprin],reduction in the infectivity titer / inactivation,C. trachomatis,> 5 log 10
CCCCCCCC(=O)OCC(O)CO (centres unmarked) [monocaprylin],reduction in the infectivity titer / inactivation,C. trachomatis,negligible effects
CCCCCCCC/C=C\CCCCCCCC(=O)OCC(O)CO (centres unmarked) [monoolein],reduction in the infectivity titer / inactivation,C. trachomatis,negligible effects
CCCCCC/C=C\CCCCCCCC(=O)OCC(O)CO (centres unmarked) [monopalmitolein],reduction in the infectivity titer / inactivation,C. trachomatis,negligible effects
CCCCCCCCCCCCCC(=O)O [myristic acid],reduction in the infectivity titer / inactivation,C. trachomatis,negligible effects
CCCCCCCC/C=C\CCCCCCCC(=O)O [oleic acid],reduction in the infectivity titer / inactivation,C. trachomatis,negligible effects
CCCCCC/C=C\CCCCCCCC(=O)O [palmitoleic acid],reduction in the infectivity titer / inactivation,C. trachomatis,negligible effects
benzalkonium chloride [BAC],LOG REDUCTIONS Pseud,[9]; Acid pH 4.0,> 6 and > 7
same,LOG REDUCTIONS Staph,[10]; Acid pH 4.0,6.12 and > 7
